Values after ≈ are worked out from the molar mass of the structure shown.

What all share (format): functional
One experiment has as its system Bacillus subtilis. The experiment can be described thus: Antibacterial activity against Bacillus subtilis assessed as growth inhibition after 24 hr by two fold serial dilution method.
The next experiment relates to NCI-H522. The experiment can be described thus: Growth inhibition of Homo sapiens (human) NCI-H522 cells at 10 uM after 48 hr by coulter counter analysis. To be noted: NCI-H522, 48 h, read-out: GI.
Another experiment deals with Pseudomonas aeruginosa. Kind of experiment: Antibacterial activity against Pseudomonas aeruginosa assessed as growth inhibition after 24 hr by two-fold serial dilution method.
For another experiment, the system named is MCF7. The experiment can be described thus: Growth inhibition of Homo sapiens (human) MCF7 cells at 10 uM after 48 hr by coulter counter analysis. To be noted: MCF7, 48 h, read-out: GI.
The test system of a further experiment is SNB-75. Kind of experiment: Growth inhibition of Homo sapiens (human) SNB75 cells at 10 uM after 48 hr by coulter counter analysis. To be noted: SNB-75, 48 h, read-out: GI.
The subject of the next experiment is HOP-92. Kind of experiment: Growth inhibition of Homo sapiens (human) HOP92 cells at 10 uM after 48 hr by coulter counter analysis. To be noted: HOP-92, 48 h, read-out: GI.
In a further experiment the test system is Escherichia coli. Kind of experiment: Antibacterial activity against Escherichia coli assessed as growth inhibition after 24 hr by two-fold serial dilution method. To be noted: for MIC: Escherichia coli, 24 h.
In another experiment the test system is Staphylococcus aureus. The experiment can be described thus: Antibacterial activity against Staphylococcus aureus assessed as growth inhibition after 24 hr by two fold serial dilution method. Conditions: for MIC: Staphylococcus aureus, 24 h.
The subject of a further experiment is SN12C. The experiment can be described thus: Growth inhibition of Homo sapiens (human) SN12C cells at 10 uM after 48 hr by coulter counter analysis. Conditions: read-out: GI.
Another experiment concerns UO-31. The experiment can be described thus: Growth inhibition of Homo sapiens (human) UO31 cells at 10 uM after 48 hr by coulter counter analysis. Conditions: UO-31, 48 h, read-out: GI.

Usually MIC stands for the lowest concentration found to suppress growth. Consider `O=C(O)c1ccc(-n2c(=O)c3ccccc3c3ccccc3c2=O)cc1`, for which the MIC in the experiment on Bacillus subtilis is 2 µg/mL (≈ 5.83 µM); in the experiment on Pseudomonas aeruginosa, > 100 µg/mL; in the experiment with Escherichia coli, 4.2 µg/mL (≈ 12.2 µM); in the experiment on Staphylococcus aureus, 2.2 µg/mL (≈ 6.41 µM). The inhibition of growth at 10 µM with NCI-H522 was determined as 7.66%; in the experiment on MCF7 it was 10.1%; in the experiment with SNB-75, 11%; with HOP-92, 10.1%; in the experiment with SN12C, 6.3%; with UO-31, 15.4%. For the same compound, the “-logMIC” value was 4.91 in the experiment on Escherichia coli and 5.19 with Staphylococcus aureus.

`COc1cc(N2C(=O)c3nccnc3C2=O)cc(OC)c1OC`: the MIC in the experiment with Bacillus subtilis was 9 µg/mL (≈ 28.5 µM); with Pseudomonas aeruginosa it was > 100 µg/mL; with Escherichia coli, 9 µg/mL (≈ 28.5 µM); with Staphylococcus aureus, 8.7 µg/mL (≈ 27.6 µM). Also, the inhibition of growth at 10 µM in the experiment on NCI-H522 was 4.82%; in the experiment with MCF7, 4.31%; in the experiment with SNB-75 it was -2.75%; in the experiment on HOP-92 it was 10.2%; in the experiment with SN12C it was 5.86%; in the experiment with UO-31 it was 12.5%. Also, the “-logMIC” value with Escherichia coli was found to be 4.54; in the experiment on Staphylococcus aureus, 4.56.

`O=c1c2ccccc2c2ccccc2c(=O)n1CCc1ccccn1`: the MIC in the experiment with Bacillus subtilis, in the experiment on Pseudomonas aeruginosa, in the experiment on Escherichia coli and in the experiment on Staphylococcus aureus was > 100 µg/mL in each case. The inhibition of growth at 10 µM amounted to 11.4% in the experiment with NCI-H522; 28.3% with MCF7; 13.1% in the experiment with SNB-75; 13.5% in the experiment on HOP-92; 8.53% with SN12C; 32.5% in the experiment with UO-31. The “-logMIC” value in the experiment on Escherichia coli and in the experiment with Staphylococcus aureus was 3.53 in each case.

Regarding `O=c1c2ccccc2c2ccccc2c(=O)n1-c1ccc([N+](=O)[O-])cc1[N+](=O)[O-]`, the MIC was 2.3 µg/mL (≈ 5.91 µM) in the experiment on Bacillus subtilis, > 100 µg/mL in the experiment with Pseudomonas aeruginosa, 4 µg/mL (≈ 10.3 µM) with Escherichia coli and 2.2 µg/mL (≈ 5.65 µM) with Staphylococcus aureus. Further, the inhibition of growth at 10 µM in the experiment with NCI-H522 is 5.5%; in the experiment on MCF7, -0.39%; in the experiment with SNB-75, 28.6%; with HOP-92, 26.4%; with SN12C it was 1.4%; in the experiment with UO-31, 18.1%. In addition, the “-logMIC” value is on record as 4.99 in the experiment with Escherichia coli and 5.25 in the experiment with Staphylococcus aureus.

On to `Cc1cc(Cl)c(-n2c(=O)c3ccccc3c3ccccc3c2=O)c(Cl)c1`, for which the MIC was determined as 19.2 µg/mL (≈ 50.2 µM) in the experiment with Bacillus subtilis, 10 µg/mL (≈ 26.2 µM) in the experiment with Pseudomonas aeruginosa, 2.6 µg/mL (≈ 6.8 µM) in the experiment with Escherichia coli and 19.5 µg/mL (≈ 51 µM) in the experiment with Staphylococcus aureus. The inhibition of growth at 10 µM is 1.31% with NCI-H522; 1.96% in the experiment with MCF7; 10.1% in the experiment with SNB-75; 1.58% in the experiment with HOP-92; 14.8% with SN12C; 34.7% in the experiment with UO-31. For the same compound, the “-logMIC” value in the experiment on Escherichia coli is listed as 5.17; with Staphylococcus aureus, 4.29.

For `O=c1c2ccccc2c2ccccc2c(=O)n1-c1c(Cl)cc(Cl)cc1Cl`, the MIC in the experiment with Bacillus subtilis was determined as 18.5 µg/mL (≈ 45.9 µM); with Pseudomonas aeruginosa, 10 µg/mL (≈ 24.8 µM); with Escherichia coli, 2.4 µg/mL (≈ 5.96 µM); in the experiment on Staphylococcus aureus it was 19 µg/mL (≈ 47.2 µM). For the same compound, the inhibition of growth at 10 µM in the experiment on NCI-H522 is 4.08%; in the experiment on MCF7 it was -1.42%; in the experiment with SNB-75 it was 45.6%; in the experiment with HOP-92, 33.6%; with SN12C, -1.37%; in the experiment with UO-31 it was 10.8%. Moreover, the “-logMIC” value in the experiment with Escherichia coli is 5.22; in the experiment with Staphylococcus aureus, 4.33.

For the compound `O=C1c2nccnc2C(=O)N1c1ccc([N+](=O)[O-])cc1[N+](=O)[O-]`, the MIC in the experiment with Bacillus subtilis was 8 µg/mL (≈ 25.4 µM); in the experiment on Pseudomonas aeruginosa it was > 100 µg/mL; in the experiment on Escherichia coli it was 10.9 µg/mL (≈ 34.6 µM); in the experiment with Staphylococcus aureus, 8.4 µg/mL (≈ 26.6 µM). Also, the inhibition of growth at 10 µM with NCI-H522 is 3.89%; in the experiment on MCF7 it was 3.56%; in the experiment with SNB-75 it was 11.4%; in the experiment with HOP-92 it was -28.1%; in the experiment with SN12C, 6.83%; in the experiment with UO-31, 15.3%. Further, the “-logMIC” value in the experiment with Escherichia coli is on record as 4.46; in the experiment on Staphylococcus aureus it was 4.57.

For the compound `COc1cc(OC)c(N2C(=O)c3cccc4cccc(c34)C2=O)c(OC)c1`, the MIC with Bacillus subtilis was 2.2 µg/mL (≈ 6.05 µM); in the experiment on Pseudomonas aeruginosa it was > 100 µg/mL; with Escherichia coli, 2.5 µg/mL (≈ 6.88 µM); in the experiment with Staphylococcus aureus, 2 µg/mL (≈ 5.5 µM). Besides, the inhibition of growth at 10 µM with NCI-H522 was determined as 13.6%; in the experiment with MCF7 it was 6.42%; with SNB-75, 13.2%; in the experiment on HOP-92, 30.2%; in the experiment with SN12C, 19.3%; in the experiment with UO-31, 21%. The “-logMIC” value in the experiment on Escherichia coli was 5.16; with Staphylococcus aureus, 5.26.

Consider `Cc1cc(Cl)c(N2C(=O)c3cccc4cccc(c34)C2=O)c(Cl)c1`, for which the MIC was determined as 20 µg/mL (≈ 56.1 µM) in the experiment on Bacillus subtilis, 10 µg/mL (≈ 28.1 µM) in the experiment with Pseudomonas aeruginosa, 2.2 µg/mL (≈ 6.18 µM) in the experiment with Escherichia coli and 18.2 µg/mL (≈ 51.1 µM) with Staphylococcus aureus. For the same compound, the inhibition of growth at 10 µM with NCI-H522 is 5.32%; with MCF7 it was -1.03%; with SNB-75, 6.64%; in the experiment on HOP-92, -15.5%; in the experiment with SN12C, 3.72%; in the experiment on UO-31, 26.8%. The entries for the “-logMIC” value in the experiment on Escherichia coli and in the experiment on Staphylococcus aureus were 5.21 and 4.29, respectively.

For `O=C1c2cccc3cccc(c23)C(=O)N1c1c(Cl)cc(Cl)cc1Cl`, the minimum inhibitory concentration (MIC) in the experiment on Bacillus subtilis came to 20 µg/mL (≈ 53.1 µM); with Pseudomonas aeruginosa, 10 µg/mL (≈ 26.6 µM); in the experiment on Escherichia coli, 2 µg/mL (≈ 5.31 µM); in the experiment on Staphylococcus aureus it was 18 µg/mL (≈ 47.8 µM). Besides, the inhibition of growth at 10 µM with NCI-H522 was 4.37%; with MCF7, 3.55%; in the experiment with SNB-75, 39.1%; with SN12C, 6.09%; in the experiment with UO-31, 20.9%. For the same compound, the entries for the “-logMIC” value in the experiment with Escherichia coli and in the experiment with Staphylococcus aureus were 5.27 and 4.32, respectively.

Turning to `O=C1c2nccnc2C(=O)N1CCc1ccccn1`, the MIC in the experiment with Bacillus subtilis, with Pseudomonas aeruginosa, with Escherichia coli and in the experiment on Staphylococcus aureus was > 100 µg/mL each time. Moreover, the inhibition of growth at 10 µM is 3.84% in the experiment with NCI-H522; 2.87% in the experiment with MCF7; 11.8% in the experiment with SNB-75; -3.5% in the experiment with HOP-92; 20.9% in the experiment with UO-31. The “-logMIC” value with Escherichia coli and with Staphylococcus aureus was 3.41 in each case.

In the case of `O=C1c2nccnc2C(=O)N1CCN1CCOCC1`, the MIC in the experiment with Bacillus subtilis, in the experiment with Pseudomonas aeruginosa, in the experiment with Escherichia coli and in the experiment with Staphylococcus aureus was > 100 µg/mL each time. Further, the “-logMIC” value in the experiment on Escherichia coli and with Staphylococcus aureus was 3.42 throughout.

`CC1(C)S[C@@H]2[C@H](NC(=O)[C@H](N)c3ccccc3)C(=O)N2[C@H]1C(=O)O` [AMPICILLIN]: the MIC with Bacillus subtilis came out at 2.2 µg/mL (≈ 6.3 µM); in the experiment on Pseudomonas aeruginosa, 10 µg/mL (≈ 28.6 µM); with Escherichia coli, 2.2 µg/mL (≈ 6.3 µM); with Staphylococcus aureus it was 2.2 µg/mL (≈ 6.3 µM).

For the origin of these results see ChEMBL document CHEMBL3046429, “Synthesis, molecular modeling study, preliminary antibacterial, and antitumor evaluation of N-substituted naphthalimides and their structural analogues” (2013).
